Test results reported in paper PMC12521527, “In vivo self-assembled nano-PROTAC for the dual degradation of AR and HSP90 to overcome castration-resistant prostate cancer resistance” (Signal Transduction and Targeted Therapy, 2025).
Numbered stars: 1 amine (or outer) side, 2 acyl side, 3 side chain; on linkers, the order of the positions; unused ones are H or OH. Square brackets hold non-standard residues; d marks the D form. Peptide text beside a SMILES is read from it. * marks the point of attachment. X2 = CC1(C)C(=O)N(c2ccc(C#N)c(C(F)(F)F)c2)C(=S)N1c1ccc(C(=O)*)c(F)c1; X1 = O=C1CCC(N2C(=O)c3cccc(N(CC(=O)[*:2])[*:1])c3C2=O)C(=O)N1; EuK = O=C(O)CC[C@H](NC(=O)N[C@@H](CCCCN*)C(=O)O)C(=O)O; 2Nal = N[C@@H](Cc1ccc2ccccc2c1)C(=O)O

Assays:
22Rv1 cells = assay: Annexin V/PI apoptosis by flow cytometry; type: cell-based; conditions: 22Rv1, 20 μM, 48 h, n = 3
Protocol: (§1) All uncropped blots are presented in Supplementary Fig. 26. j, k Representative 22Rv1 cell CLSM images of the degradation of AR after incubation with FITC-labeled Psa-AR for 12 h and quantitative analysis, n = 3 per group. Scale bar: 10 μm. l, m Representative 22Rv1 cell CLSM images of the degradation of HSP90 after incubation with FITC-labeled Psa-AR for 12 h and quantitative analysis, n = 3 per group. Scale bar: 10 μm. n AR-V7 expression in 22Rv1 cells after treatment with PBS, P-AR (20 μM), Psa-AR (20 μM) or Psa-AR (20 μM) combined with MG132 (2 μM) for 48 h, as determined by western blotting. β-Actin was used as an internal reference. o Results of apoptosis in 22Rv1 cells treated with PBS, P-AR (20 μM), or Psa-AR (20 μM) for 48 h, as detected by flow cytometry.

AR-V7 = assay: Western blot AR-V7 degradation in 22Rv1 cells; type: cell-based; conditions: 22Rv1, 20 μM, 48 h
Protocol: as §1
(§2) The pretreated cells were resuspended in lysis buffer containing 50 mM Tris-HCl (pH 8.0), 150 mM NaCl, 1% (v/v) Triton X-100, and protease inhibitors. The protein concentration was determined via a BCA kit (Applygen). Each sample ([…]) was subjected to SDS‒PAGE and then transferred to a PVDF membrane. The blots were blocked in 5% (wt/v) blocking buffer. After washing three times with TBST buffer (10 mM TBS solution containing 0.1% (v/v) Tween-20), the blots were incubated with primary antibodies at 4 °C on a shaker for 16 h. […]

HSP90 [1] = assay: HSP90 degradation in LNCaP cells; type: cell-based; conditions: time-dependent evaluation
Protocol: The pretreated cells were resuspended in lysis buffer containing 50 mM Tris-HCl (pH 8.0), 150 mM NaCl, 1% (v/v) Triton X-100, and protease inhibitors. The protein concentration was determined via a BCA kit (Applygen). Each sample ([…]) was subjected to SDS‒PAGE and then transferred to a PVDF membrane. The blots were blocked in 5% (wt/v) blocking buffer. After washing three times with TBST buffer (10 mM TBS solution containing 0.1% (v/v) Tween-20), the blots were incubated with primary antibodies at 4 °C on a shaker for 16 h. After washing with TBST buffer three times, the blot was incubated with secondary antibodies at room temperature on a shaker for 2 h. After being washed three times with TBST buffer, the blots were subsequently scanned on a Typhoon Trio Variable Mode Imager.

22Rv1 (PSMA^high) cells = assay: Flow cytometry uptake of FITC-labeled conjugates in 22Rv1 cells; type: cell-based; conditions: 40 µM, 24 h, n = 3
Protocol: Fig. 2 a Representative 22Rv1 cell CLSM images of FITC-labeled Psa-AR (40 μM) assembly (green channel) interacting with PSMA (red channel) and its colocalization analysis (1–1’). Scale bar: 10 μm. b Representative SEM images of 22Rv1 cells after treatment with Psa-AR (40 μM) for 4 h. Scale bar: 1 μm. Scale bar: 200 nm (zoom in). c Representative 22Rv1 cell CLSM images of FITC-labeled P-AR (40 μM) (green channel) interacting with PSMA (red channel). Scale bar: 10 μm. d Representative SEM images of 22Rv1 cells after treatment with P-AR (40 μM) for 4 h. Scale bar: 1 μm. Scale bar: 200 nm (zoom in). e The uptake of either Psa-AR or P-AR by 22Rv1 (PSMA^high) and RWPE-1 (PSMA^low) cells was examined by flow cytometry, followed by comprehensive quantitative analysis (f), n = 3 per group. g Representative 22Rv1 cell CLSM images of FITC-labeled Psa-AR assembly (green channel) with lysosomes (red channel) and colocalization analysis. Scale bar: 10 μm. h Representative CLSM images of 22Rv1 cells after incubation with FITC-labeled Psa-AR (green channel) for 12 h. […]
A total of 1 × 10^5 22Rv1 cells per well were seeded in 6-well plates in DMEM containing 10% fetal bovine serum and 1% penicillin‒streptomycin. […] Then, the cells were collected to evaluate fluorescence expression via flow cytometry. […] The cells were then collected and analyzed for fluorescence expression via flow cytometry.

PSMA protein = PSMA protein (Homo sapiens, UniProt Q04609); assay: MST binding affinity, Psa-AR and PSMA protein; conditions: RED-NHS-labeled PSMA 400 nM, PBS-T (0.05% Tween 20), 22 °C, n = 3, read-out: Kd, binding affinity between Psa-AR and PSMA
Protocol: Fig. 1 Protein-induced self-assembly behaviors of Psa-AR in vitro. a Six tissue samples from patients with prostate tumors (1–6) and six from patients with normal prostates (1’–6’) were obtained clinically. The expression of CRBN in these samples was analyzed by immunohistochemistry (IHC).
MST (NanoTemper Technologies GmbH, Munich, Germany) was utilized to evaluate the binding affinity between Psa-AR and RED-NHS-labeled PSMA, AR, or CRBN proteins. The PSMA, AR, and CRBN proteins were labeled with the Protein Labeling Kit RED-NHS 2nd Generation (Amine Reactive). RED-PSMA, RED-AR, and RED-CRBN proteins were diluted to a final concentration of 400 nM with PBS-T buffer (0.05% Tween 20), where the fluorescence signals satisfied the typical detection limit of the Monolith NT.115 instrument (NanoTemper Technologies). The binding affinity between Psa-AR and the RED-NHS-labeled AR protein was assessed. […] Then, 10 µL of RED-CRBN was added to each sample to achieve a final concentration of 400 nM. After incubation for 20 min, the samples were loaded into standard/premium-treated capillaries. All the experiments were performed at 22 °C. The data were analyzed by NanoTemper analysis software.

[2] = ThT assay of self-assembly (critical assembly concentration, assembly kinetics); type: physicochemical
AR = assay: Western blot AR degradation in 22Rv1 (PSMA^KD) cells; type: cell-based; conditions: 20 μM, 48 h
Protocol: as §1, §2

HSP90 [3] = assay: Western blot HSP90 degradation in 22Rv1 cells; type: cell-based
Protocol: as §1, §2

RWPE-1 cells = assay: Cytotoxicity in normal RWPE-1 cells; type: cell-based; conditions: PSMA^low normal RWPE-1 cells, 1–100 μM, 48 h of exposure

Sequence of PSMA protein (Q04609 whole entry): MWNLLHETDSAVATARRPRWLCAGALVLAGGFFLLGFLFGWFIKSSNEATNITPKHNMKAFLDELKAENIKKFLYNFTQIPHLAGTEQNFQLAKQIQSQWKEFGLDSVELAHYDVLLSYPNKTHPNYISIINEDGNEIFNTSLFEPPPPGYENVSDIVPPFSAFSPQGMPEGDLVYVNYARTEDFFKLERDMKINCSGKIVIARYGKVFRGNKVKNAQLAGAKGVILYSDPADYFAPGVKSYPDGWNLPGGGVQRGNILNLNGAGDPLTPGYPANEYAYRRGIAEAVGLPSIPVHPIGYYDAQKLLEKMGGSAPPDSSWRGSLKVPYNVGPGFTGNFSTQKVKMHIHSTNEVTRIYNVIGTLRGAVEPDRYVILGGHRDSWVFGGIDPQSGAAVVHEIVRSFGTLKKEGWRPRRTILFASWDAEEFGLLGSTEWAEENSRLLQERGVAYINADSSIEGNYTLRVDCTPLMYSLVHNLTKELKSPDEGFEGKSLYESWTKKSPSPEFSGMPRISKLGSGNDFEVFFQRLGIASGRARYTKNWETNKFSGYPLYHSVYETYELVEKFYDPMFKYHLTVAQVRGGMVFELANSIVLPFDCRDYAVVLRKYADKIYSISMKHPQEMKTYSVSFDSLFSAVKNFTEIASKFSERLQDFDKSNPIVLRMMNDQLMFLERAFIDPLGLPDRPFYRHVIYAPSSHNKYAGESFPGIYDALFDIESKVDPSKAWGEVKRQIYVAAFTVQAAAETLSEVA

CC1(C)C(=O)N(c2ccc(C#N)c(C(F)(F)F)c2)C(=S)N1c1ccc(C(=O)NCCCC[C@H](NC(=O)CNc2cccc3c2C(=O)N(C2CCC(=O)NC2=O)C3=O)C(=O)N[C@@H](CS)C(=O)N[C@@H](CCC(N)=O)C(=O)N[C@@H](Cc2ccc(O)cc2)C(=O)N[C@@H](CC(N)=O)C(=O)N[C@@H](CCC(N)=O)C(=O)N[C@@H](Cc2ccc(O)cc2)C(=O)N[C@@H](Cc2ccc(O)cc2)C(=O)N[C@@H](Cc2ccc3ccccc3c2)C(=O)NCCCC[C@H](NC(=O)N[C@@H](CCC(=O)O)C(=O)O)C(=O)O)c(F)c1 (some centres unmarked) [Psa-AR] (H-[X1]K(X2)CQYNQYY[2Nal]-EuK)
total apoptotic cells (early and late phases) (22Rv1 cells): 75%
greater AR-V7 degradation than P-AR (AR-V7): 66%
HSP90 degradation rate (HSP90 [1]): 70%
FTIR amide I peak without PSMA: 1660 cm⁻¹
uptake efficiency relative to nonassembling P-AR (22Rv1 (PSMA^high) cells): 5 fold
Kd (PSMA protein): 7.2 nM
lowering of CAC by PSMA binding ([2]; ThT assay, 95.5–10.9 μM): 8.76 fold
time to full assembly equilibrium, PSMA-bound ([2]; ThT kinetic curve, 40 μM, PSMA added): 12 h
t1/2 of self-assembly (50% assembly), PSMA-bound ([2]; ThT kinetic curve, 40 μM, PSMA added, n = 3): 1.4 h
time to full assembly equilibrium, unbound ([2]; ThT kinetic curve, 40 μM, without PSMA): 60 h
t1/2 of self-assembly (50% assembly), unbound ([2]; ThT kinetic curve, 40 μM, without PSMA, n = 3): 11.4 h
critical assembly concentration (CAC) with PSMA added ([2]; standard ThT assay, PSMA added, n = 3, P-AR tested up to 50 μM): 10.9 µM
critical assembly concentration (CAC) ([2]; standard ThT assay, without PSMA, n = 3): 95.5 µM
AR protein degradation in PSMA-knockdown cells (AR): failed to induce significant protein degradation
HSP90 degradation (HSP90 [3]; 22Rv1, 20 μM, 48 h, western blot): > 60%
sustained HSP90 protein clearance over 96 h (HSP90 [3]; 22Rv1, optimal concentrations, 96 h): 78%
cell viability relative to vehicle controls (RWPE-1 cells): above 90%
